Consider 5 compounds from ChEMBL document CHEMBL1133921, “Absolute stereostructures of novel norcadinane- and trinoreudesmane-type sesquiterpenes with nitric oxide production inhibitory activity from Alpinia oxyphylla” (Bioorg Med Chem Lett, 2001).

By inhibition is commonly meant the change of the read-out against control, counted positive when it falls. A word on the pIC50: it is the negative decadic logarithm of the IC50, by convention in mol/L. Higher therefore signals a low IC50.

SMILES strings stand for the structures. pIC50: −log10 of the molar value.

Holding throughout (type): functional
For test [1], the species on record is Mus musculus. The experiment in a line: Inhibitory effect on nitric oxide production in lipopolysaccharide activated mouse peritoneal macrophages at 10 uM.
The species named for test [2] is Mus musculus. The test is described as follows: Inhibitory effect on nitric oxide production in lipopolysaccharide activated mouse peritoneal macrophages at 3 uM.
The species entered for test [3] is Mus musculus. The test is described as follows: Inhibitory concentration on nitric oxide production in lipopolysaccharide-activated mouse peritoneal macrophages.

As for `C[C@@]12CCC(=O)C=C1[C@](C)(O)[C@H](O)CC2` [OXYPHYLLENONE B], in the test filed under Mus musculus [1], the inhibition at 10 µM was 0.4%. For the same compound, the inhibition at 3 µM in the test filed under Mus musculus [2] is -8.1%. In the test filed under Mus musculus [3], the negative logarithm of the IC50 (pIC50) was below 4.00.
For `CC(C)[C@H]1CCC(=O)C2=C1[C@H](O)[C@](C)(O)CC2` [OXYPHYLLENODIOL B], in that order: -0.4%, -4.2% and below 4.00.
As to `CNC(=N)NCCC[C@H](N)C(=O)O` [TILARGININE], in the test filed under Mus musculus [2], the inhibition at 3 µM turned out to be 2%.
`C[C@@]12CCC(=O)C=C1[C@@](C)(O)[C@H](O)CC2` [OXYPHYLLENONE A]: the inhibition at 10 µM in the test listed under Mus musculus [1] is -2.9%. The inhibition at 3 µM in the test filed under Mus musculus [2] was found to be 1.6%. In addition, the pIC50 in the test filed under Mus musculus [3] was 4.46.
Regarding `CC(C)[C@@H]1CCC(=O)C2=C1[C@H](O)[C@](C)(O)CC2` [OXYPHYLLENODIOL A], the inhibition at 3 µM in the test filed under Mus musculus [2] turned out to be 11.8%. The same compound gave a negative-log IC50 (pIC50) in the test listed under Mus musculus [3] of 4.55.
